Experimental data published in patent US20110224221A1, “HEMATOPOIETIC PROTECTION AGAINST IONIZING RADIATION USING SELECTIVE CYCLIN-DEPENDENT KINASE 4/6 INHIBITORS” (priority 2008, published 2011).

Tests used:
[1] = test system: peripheral blood lineages; design: species or system mice; conditions: mouse, in vivo
Source text: Data are shown as a moving average with each point representing the mean of three consecutive […]. Error bars are +/− of the standard error of the mean for all data points associated with the moving average. The solid black bar in the lower left of each graph indicates the duration of the PD0332991 treatment. Data from PD0332991 treated mice is shown by the unshaded squares. For comparison, data from mice that had not been treated with PD0332991 is shown in shaded circles.
For TBI experiments, mice were irradiated using a ^137Cs source (AECL Gammacell 40 Irradiator, Atomic Energy of Canada Ltd, Mississauga, Ontario, Canada). Delivered doses were at or near the empirically determined LD90 of 7.5 Gy, consistent with prior studies. See Na Nakorn et al., J. Clin. Invest., 109, 1579-1585 (2002); Herodin et al., Blood, 101, 2609-2616 (2003); Uckun et al., Blood, 75, 638-645 (1990); and Wang et al., Proc. Natl. Acad. Sci., USA, 94, 14590-14595 (1997). Peripheral blood was collected using a tail vein nick for complete blood cells (CBCs) and analyzed with a HemaTrue analyzer (Heska Co., Loveland, Colo., United States of America).
These observations are consistent with the kinetics and degree of myelosuppression seen when tumor bearing mice (see Ramsey et al., Cancer Res., 67, 4732-4741 (2007); and Fry et al., Mol. Cancer Ther., 3, 1427-1438 (2004)) and human patients with malignancies (see O'Dwyer et al., “A Phase I does escalation trial of a daily oral CDK4/6 Inhibitor PD 0332991” in American Society of Clinical Oncology (ASCO, Chicago, Ill., 2007)) are serially treated with PD0332991. The noted decreases might be expected to enhance the adverse effects of radiation therapy. However, unexpectedly as shown herein, hematopoietic cells are protected from adverse effects.

[2] = test system: bone marrow mononuclear cells (BM-MNCs); test: Cobblestone area-forming cell (CAFC) assay; format: cell-based, mice; conditions: daily oral gavage for 2 days prior to bone marrow harvest
Experimental: CAFCs are per 1×10^5 bone marrow mononuclear cells (BM-MNCs). Error bars are +/− the standard error of the mean of pooled samples measured in duplicate.
Cobblestone Area-forming Cell (CAFC) Assay: The CAFC assay was performed as described previously. See Meng et al., Cancer Res., 63, 5414-5419 (2003). Briefly, bone marrow was harvested from femurs and tibias of mice and centrifuged to purify BM-MNCs. The frequencies of CAFC were determined at weekly intervals (on day 7, 14, and 35). Wells were scored positive if at least one phase-dark hematopoietic clone (containing 5 or more cells) was seen. The frequency of CAFC was then calculated by using Poisson statistics as described.

[3] = test system: RB-null melanoma cell line A2058; test: Clonogenic assay after IR, A2058; format: cell-based, human; conditions: 100 nM, IR 0-9 Gy
Experimental: Data plotted is the area/cell ratio of PD0332991 treated cells to dimethyl sulfoxide (DMSO) treated cells. Error bars show standard error of the mean.
Clonogenic Assay: The clonogenic assay was performed as previously described (see Franken et al., Nature protocols, 1, 2315-1319 (2006)) with cells plated in a six-well plate at least 6 hours prior to treatment with CDK inhibitor for 24 hours, […] Cells were grown for 16 days, washed, fixed, and stained with crystal violet. Plates were then imaged using an Odyssey infrared scanner (Li-Cor Biosciences, Lincoln, Nebr., United States of America) and quantified using the accompanying software.

[4] = Serum/plasma levels after oral gavage; format: in vivo, mice
Experimental: Mass Spectrometry: Mice were dosed as described and tail vein nick performed to acquire 30 μL periphal blood. Blood was centrifuged to acquire 10 μL plasma, which was mixed with 100 μL ice cold methanol, centrifuged, and mixed with 10 μL of an internal control. Plasma levels were quantified based on standard curves derived in triplicate from known concentrations of wild type C57Bl/6 female mouse plasma unexposed to the measured drug. Quantification was performed using HPLC separation with triple quadrupole mass spectrometry normalizing results to measurement of the internal standard.

[5] = test system: mice exposed to total body irradiation
Source text: FIG. 16 is set of bar graphs showing the hematocrit or cell counts of different lineages of blood cells from mice 143-242 days following exposure to a lethal dose (7.5 gray (Gy)) or sub-lethal dose (6.5 Gy) of total body irradiation (TBI). Data for mice treated with 6-acetyl-8-cyclopentyl-5-methyl-2-(5-piperazin-1-yl-pyridin-2-ylamino)-8H-pyrido-[2,3-d]pyrimidin-7-one (PD 0332991) prior to 6.5 Gy TBI is shown in the solid bars and data for mice treated with PD 0332991 prior to 7.5 Gy TBI is shown in the stippled bars. […] Myeloid cell count is the sum of granulocytes and monocytes.

With `CC(=O)c1c(C)c2cnc(Nc3ccc(N4CCNCC4)cn3)nc2n(C2CCCC2)c1=O` [PD0332991, 6-acetyl-8-cyclopentyl-5-methyl-2-(5-piperazin-1-yl-pyridin-2-ylamino)-8H-pyrido-[2,3-d]-pyrimidin-7-one] the “time to begin of improvement upon cessation” value [1] was at most 4 days, the “treatment time after which decrease became apparent” value [1] was 8 days and the “erythroid, platelet and myeloid lineages” value ([1]; po, 150 mg/kg) was “modest decrease”. The “in vivo HSPC number (CAFC)” value [2] was “did not decrease in vivo HSPC number”, the “clonogenic cell survival after IR (area/cell ratio relative to DMSO)” value [3] was “not in CDK4/6-independent cells” and the “persistence of therapeutic serum levels” value [4] was 10 to 20 h. For the same compound, the “time until therapeutic serum levels are achieved” value [4] was over 30 min, the deaths ([5]; 6.5 Gy TBI, followed 210-274 days post-TBI) was “no deaths” and the “deaths among 29 mice surviving acute toxicity” value ([5]; 7.5 Gy TBI, remaining mice disease free 101-251 days post-TBI) was “one death of unknown cause at day 99”. For the same compound, the “blood counts on long-term surviving animals vs unirradiated” value ([5]; long-term after TBI) was “comparable” and the “myeloproliferative disorder or myelodysplasia” value ([5]; mouse, in vivo) was “No evidence”.
